Earlier results in patent US8871750B2, “Use of aromatase inhibitors for endometrial thinning in preparation for surgical procedures on the endometrial cavity and uterus” (Wayne State University, priority 2004, dated 2014).

Tests used:
[1] = postmenopausal breast cancer treatment
[2] = tested on: endometrium; details: small, randomized study
[3] = tested on: endometrium; details: in vivo

| SMILES | effect on endometrial thickness [2] | further results |
| --- | --- | --- |
| CCC1(c2ccc(N)cc2)CCC(=O)NC1=O (centres unmarked) [aminoglutethimide] |  | patients stopping treatment because of side effects (lethargy, rashes, nausea, fever) [1]: 8-15% |
| CC(=O)O[C@]1(C(C)=O)CC[C@H]2[C@@H]3C=C(Cl)C4=CC(=O)[C@@H]5C[C@@H]5[C@]4(C)[C@H]3CC[C@@]21C [cyproterone acetate] | significant reduction |  |
| CC(=O)O[C@]1(C(C)=O)CC[C@H]2[C@@H]3C[C@H](C)C4=CC(=O)CC[C@]4(C)[C@H]3CC[C@@]21C [medroxyprogesterone acetate] | no effect |  |
| CC#C[C@]1(O)CC[C@H]2[C@@H]3CCC4=CC(=O)CCC4=C3[C@@H](c3ccc(N(C)C)cc3)C[C@@]21C [mifepristone] |  | effect on endometrium and menstrual bleeding [3]: marked endometrial ECM breakdown and excessive menstrual bleeding |
| C#C[C@]1(O)CC[C@H]2[C@@H]3CCC4=CC(=O)CC[C@@H]4[C@H]3CC[C@@]21C [norethisterone] | no effect |  |
